Test results reported in ChEMBL document CHEMBL1143984, “Anti-inflammatory activity profile of JANEX-1 in preclinical animal models” (Bioorg Med Chem, 2008).
Activity calls are given as the source filed them. The rule behind the calls is not given here.

Legend:
HT-29 [1] = experiment: Inhibition of LPS-stimulated […] release in human HT29 cells after 6 hrs by ELISA; format: functional, cell-based
Mus musculus [2] = experiment: Antiinflammatory activity in paraffin oil challenged C3H-FeJ peritonitis mouse model assessed as peritoneal levage macrophage count per 10^5/mL at 4 mg/kg, ip after 3 days; format: functional; details: route intraperitoneal
Mus musculus [3] = organism: Mus musculus; experiment: Antiinflammatory activity against LPS-galactosamine challenged C57BL/6J SIRS mouse model at 500 ug assessed as mortality within 24 hrs; format: functional, organism-based
RAW [4] = experiment: Inhibition of LPS-induced nitric oxide production in mouse RAW 264.7 cells assessed as nitrite formation; format: functional, cell-based
Mus musculus [5] = experiment: Antiinflammatory activity in paraffin oil challenged C3H-FeJ peritonitis mouse model assessed as peritoneal levage macrophage count per 10^5/mL at 2 mg/kg, ip after 3 days; format: functional; details: route intraperitoneal
Mus musculus [6] = experiment: Antiinflammatory activity in paraffin oil challenged C3H-FeJ peritonitis mouse model assessed as peritoneal levage macrophage count per 10^5/mL at 2 mg/kg, ip after 7 days; format: functional; details: route intraperitoneal
Mus musculus [7] = experiment: Antiinflammatory activity in paraffin oil challenged ip dosed C3H-FeJ peritonitis mouse model after 7 days; format: functional; details: 168 h
Mus musculus [8] = experiment: Effect on LPS-induced nitric oxide production in C3H-FeJ peritonitis mouse peritoneal macrophages at 4 mg/kg, ip after 7 days; format: functional; details: route intraperitoneal
L929 [9] = experiment: Effect on TNF-mediated cytotoxicity against mouse L929 cells at 1 ug/mL after 18 hrs by crystal-violet staining assay; format: functional
Mus musculus [10] = experiment: Antiinflammatory activity against carrageenan-induced hind paw edema in CD1 foot-pad mouse model assessed as reduction in paw swelling at 30 mg/kg, ip after 6 hrs; format: functional, organism-based; parameters: dose 30 mg/kg
Mus musculus [11] = experiment: Effect on LPS-induced nitric oxide production in C3H-FeJ peritonitis mouse peritoneal macrophages at 2 mg/kg, ip after 3 days; format: functional; details: route intraperitoneal
Mus musculus [12] = experiment: Effect on TNF-mediated cytotoxicity against C3H-FeJ mouse […] cells at 4 mg/kg, ip after 7 days; format: functional; details: route intraperitoneal
RAW [13] = experiment: Inhibition of LPS-induced TNFalpha production in mouse RAW 264.7 cells after 4 hrs by ELISA; format: functional, cell-based
Mus musculus [14] = experiment: Effect on TNF-mediated cytotoxicity against C3H-FeJ mouse L929 cells at 2 mg/kg, ip after 7 days; format: functional; details: route intraperitoneal
L929 [15] = experiment: Effect on TNF-mediated cytotoxicity against mouse L929 cells at 10 ug/mL after 18 hrs by crystal-violet staining assay; format: functional
Mus musculus [16] = experiment: Effect on LPS-induced nitric oxide production in C3H-FeJ peritonitis mouse peritoneal macrophages at 4 mg/kg, ip after 3 days; format: functional; details: route intraperitoneal
[17] = molecular target: T1, Tyrosine-protein kinase JAK3 (Mus musculus) (UniProt Q62137); experiment: Reduction of LPS-induced JAK3 phosphorylation in mouse RAW 264.7 cells at 100 ug/mL by Western blot analysis; format: cell-based
T1 sequence (whole entry): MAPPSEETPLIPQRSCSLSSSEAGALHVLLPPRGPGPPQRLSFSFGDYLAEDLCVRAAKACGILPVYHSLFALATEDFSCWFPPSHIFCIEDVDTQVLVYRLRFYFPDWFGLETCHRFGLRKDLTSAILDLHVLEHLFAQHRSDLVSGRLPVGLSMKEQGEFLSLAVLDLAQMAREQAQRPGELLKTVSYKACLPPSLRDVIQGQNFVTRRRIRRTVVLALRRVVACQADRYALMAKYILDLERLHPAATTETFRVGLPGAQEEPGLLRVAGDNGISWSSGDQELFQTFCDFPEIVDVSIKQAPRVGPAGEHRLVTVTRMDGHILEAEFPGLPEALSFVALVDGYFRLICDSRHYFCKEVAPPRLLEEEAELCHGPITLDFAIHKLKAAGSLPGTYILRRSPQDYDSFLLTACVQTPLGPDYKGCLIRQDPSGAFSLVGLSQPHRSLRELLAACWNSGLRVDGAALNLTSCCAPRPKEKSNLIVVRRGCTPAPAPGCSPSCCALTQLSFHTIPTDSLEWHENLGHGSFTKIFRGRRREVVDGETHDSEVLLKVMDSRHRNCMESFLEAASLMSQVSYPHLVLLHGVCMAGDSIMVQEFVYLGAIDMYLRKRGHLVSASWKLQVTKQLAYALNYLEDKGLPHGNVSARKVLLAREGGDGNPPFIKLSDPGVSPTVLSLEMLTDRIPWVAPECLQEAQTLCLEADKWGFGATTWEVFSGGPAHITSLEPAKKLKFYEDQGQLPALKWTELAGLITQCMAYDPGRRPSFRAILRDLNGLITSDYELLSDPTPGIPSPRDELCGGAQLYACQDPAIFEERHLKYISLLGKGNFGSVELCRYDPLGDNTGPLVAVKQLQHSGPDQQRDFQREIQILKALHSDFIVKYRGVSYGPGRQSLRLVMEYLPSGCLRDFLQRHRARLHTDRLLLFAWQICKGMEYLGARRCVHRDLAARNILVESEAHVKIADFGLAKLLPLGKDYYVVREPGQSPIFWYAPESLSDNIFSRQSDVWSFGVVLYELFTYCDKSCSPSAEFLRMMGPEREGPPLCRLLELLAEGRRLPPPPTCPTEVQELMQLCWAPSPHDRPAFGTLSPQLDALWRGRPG

Mus musculus [18] = experiment: Effect on LPS-induced nitric oxide production in C3H-FeJ peritonitis mouse peritoneal macrophages at 2 mg/kg, ip after 7 days; format: functional; details: route intraperitoneal
L929 [19] = experiment: Inhibition of LPS-induced TNFalpha production in mouse L929 cells after 4 hrs by ELISA; format: functional, cell-based; details: L929, 4 h
Mus musculus [20] = experiment: Effect on TNF-mediated cytotoxicity against C3H-FeJ mouse L929 cells at 2 mg/kg, ip after 3 days; format: functional; details: route intraperitoneal
L929 [21] = experiment: Inhibition of LPS-induced nitric oxide production in mouse L929 cells assessed as nitrite formation; format: functional, cell-based
RAW [22] = experiment: Inhibition of LPS-induced iNOS mRNA level in mouse RAW 264.7 cells by Northern blot analysis; format: functional, cell-based
L929 [23] = experiment: Effect on TNF-mediated cytotoxicity against mouse L929 cells at 100 ug/mL after 18 hrs by crystal-violet staining assay; format: functional
HT-29 [24] = experiment: Inhibition of LPS-stimulated prostaglandin E2 release in human HT29 cells after 6 hrs by ELISA; format: functional, cell-based
Mus musculus [25] = experiment: Antiinflammatory activity in paraffin oil challenged C3H-FeJ peritonitis mouse model assessed as peritoneal levage macrophage count per 10^5/mL at 4 mg/kg, ip after 7 days; format: functional; details: route intraperitoneal
Mus musculus [26] = experiment: Antiinflammatory activity against TNBS-induced colitis in BALB/c IBD mouse model at 25 mg/kg, ip; format: functional, organism-based; parameters: dose 25 mg/kg
RAW [27] = experiment: Inhibition of LPS-induced TNFalpha mRNA level in mouse RAW 264.7 cells by Northern blot analysis; format: functional, cell-based
Mus musculus [28] = experiment: Effect on TNF-mediated cytotoxicity against C3H-FeJ mouse […] cells at 4 mg/kg, ip after 3 days; format: functional; details: route intraperitoneal
Mus musculus [29] = experiment: Antiinflammatory activity against carrageenan-induced hind paw edema in ICR foot-pad mouse model assessed as reduction in paw swelling at 30 mg/kg, ip after 6 hrs; format: functional, organism-based; parameters: dose 30 mg/kg

Question: How did the Activity (HT-29 [1]) turn out when `COc1cc2ncnc(Nc3ccc(O)cc3)c2cc1OC` [WHI-P131] was run?
Answer: Active

Question: And the Activity (Mus musculus [2])?
Answer: 2.3

Question: What about the Activity (Mus musculus [3]) of the same compound?
Answer: Non-toxic

Question: And the IC50 (RAW [4])?
Answer: 1.4 µM

Question: And the Activity (Mus musculus [5])?
Answer: 3.1

Question: What about the Activity (Mus musculus [6]) of the same compound?
Answer: 4.3

Question: And the ED50 (Mus musculus [7])?
Answer: 2.8 mg/kg

Question: What about the Activity (Mus musculus [8]) of the same compound?
Answer: 4 µM

Question: And the Activity (L929 [9])?
Answer: 45.9%

Question: What about the Activity (Mus musculus [10]) of the same compound?
Answer: Active

Question: What about the Activity (Mus musculus [11]) of the same compound?
Answer: 40 µM

Question: What about the Activity (Mus musculus [12]) of the same compound?
Answer: 34.6%

Question: And the IC50 (RAW [13])?
Answer: 124 µM

Question: And the Activity (Mus musculus [14])?
Answer: 45.3%

Question: What about the Activity (L929 [15]) of the same compound?
Answer: 25.7%

Question: What about the Activity (Mus musculus [16]) of the same compound?
Answer: 13 µM

Question: What about the Activity [17] of the same compound?
Answer: Active

Question: And the Activity (Mus musculus [18])?
Answer: 3 µM

Question: What about the IC50 (L929 [19]) of the same compound?
Answer: 14.5 µM

Question: What about the Activity (Mus musculus [20]) of the same compound?
Answer: 31.8%

Question: And the IC50 (L929 [21])?
Answer: 1.7 µM

Question: And the Activity (RAW [22])?
Answer: Active

Question: What about the Activity (L929 [23]) of the same compound?
Answer: 0%

Question: And the Activity (HT-29 [24])?
Answer: Active

Question: What about the Activity (Mus musculus [25]) of the same compound?
Answer: 2.5

Question: What about the Activity (Mus musculus [26]) of the same compound?
Answer: Active

Question: And the Activity (RAW [27])?
Answer: Dose-dependent effect

Question: And the Activity (Mus musculus [28])?
Answer: 18.8%

Question: What about the Activity (Mus musculus [29]) of the same compound?
Answer: Active
